This is an account of results in patent US20080045525A1, “Piperazinyl-Pyridine Analogues” (priority 2004, published 2008).

One assay concerns the target VR.
Assay: not given
The settings on record: typical value, non-selective cation channel blocker; cited from earlier work.
Take `Cl.Cl.Cl.Cl.Cl.Cl.N.N.N.N.N.N.N.N.N.N.N.N.N.N.[O-2].[O-2].[Ru+3].[Ru+3].[Ru+4]` [ruthenium red]: the Ki is not below 140000 nM.

In the next assay the target is T1, human capsaicin receptor (Homo sapiens, UniProt Q8NER1).
T1 construct: transfected with the pBK-CMV expression construct encoding the full length human capsaicin receptor; expressed in transfected cells
T1 sequence (Q8NER1 whole entry): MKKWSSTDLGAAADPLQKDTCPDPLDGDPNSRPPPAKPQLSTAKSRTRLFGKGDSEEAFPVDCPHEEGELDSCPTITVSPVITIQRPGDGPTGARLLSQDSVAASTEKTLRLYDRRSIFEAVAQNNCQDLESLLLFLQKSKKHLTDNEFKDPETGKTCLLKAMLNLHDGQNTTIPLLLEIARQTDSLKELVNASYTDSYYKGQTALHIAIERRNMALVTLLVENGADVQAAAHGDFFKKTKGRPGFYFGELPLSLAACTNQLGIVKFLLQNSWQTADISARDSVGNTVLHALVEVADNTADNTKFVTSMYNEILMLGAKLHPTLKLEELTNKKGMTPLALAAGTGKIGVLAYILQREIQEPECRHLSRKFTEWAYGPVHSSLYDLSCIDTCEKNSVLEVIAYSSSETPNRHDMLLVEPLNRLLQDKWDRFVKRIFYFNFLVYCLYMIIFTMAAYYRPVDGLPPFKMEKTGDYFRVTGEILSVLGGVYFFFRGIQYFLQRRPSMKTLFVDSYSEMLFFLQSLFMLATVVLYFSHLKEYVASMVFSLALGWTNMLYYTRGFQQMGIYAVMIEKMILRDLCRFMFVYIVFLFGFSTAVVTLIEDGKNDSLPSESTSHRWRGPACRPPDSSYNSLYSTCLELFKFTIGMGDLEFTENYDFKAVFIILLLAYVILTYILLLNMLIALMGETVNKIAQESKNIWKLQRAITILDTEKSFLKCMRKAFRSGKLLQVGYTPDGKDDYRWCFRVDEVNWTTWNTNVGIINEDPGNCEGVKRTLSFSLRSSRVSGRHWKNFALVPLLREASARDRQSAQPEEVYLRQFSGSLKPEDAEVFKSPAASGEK
The assay is described as follows: Calcium mobilization assay, determination of antagonist activity. The settings on record: cells expressing human capsaicin receptor; capsaicin at its EC50; FLUO-3 fluorescence. It counts as cell-based. The protocol: A cDNA encoding full length human capsaicin receptor (SEQ ID NO:1, 2 or 3 of U.S. Pat. No. 6,482,611) was subcloned in the plasmid pBK-CMV (Stratagene, La Jolla, Calif.) for recombinant expression in mammalian cells.
Human embryonic kidney (HEK293) cells were transfected with the pBK-CMV expression construct encoding the full length human capsaicin receptor using standard methods. The transfected cells were selected for two weeks in media containing G418 (400 μg/ml) to obtain a pool of stably transfected cells. Independent clones were isolated from this pool by limiting dilution to obtain clonal stable cell lines for use in subsequent experiments.
(§1) Cells transfected with expression plasmids (as described in Example 4) and thereby expressing human capsaicin receptor are seeded and grown to 70-90% confluency in FALCON black-walled, clear-bottomed 96-well plates (#3904, BECTON-DICKINSON, Franklin Lakes, N.J.). The culture medium is emptied from the 96 well plates and FLUO-3 AM calcium sensitive dye (Molecular Probes, Eugene, Oreg.) is added to each well (dye solution: 1 mg FLUO-3 AM, 440 μL DMSO and 440 μl 20% pluronic acid in DMSO, diluted 1:250 in Krebs-Ringer HEPES (KRH) buffer (25 mM HEPES, 5 mM KCl, 0.96 mM NaH2PO4, 1 mM MgSO4, 2 mM CaCl2, 5 mM glucose, 1 mM probenecid, pH 7.4), 50 μl diluted solution per well). Plates are covered with aluminum foil and incubated at 37° C. for 1-2 hours in an environment containing 5% CO2. After the incubation, the dye is emptied from the plates, and the cells are washed once with KRH buffer, and resuspended in KRH buffer.
To measure the ability of a test compound to agonize or antagonize a calcium mobilization response in cells expressing capsaicin receptors to capsaicin or other vanilloid agonist, the EC50 of the agonist capsaicin is first determined. An additional 20 μl of KRH buffer and 1 μl DMSO is added to each well of cells, prepared as described above. 100 μl capsaicin in KRH buffer is automatically transferred by the FLIPR instrument to each well. Capsaicin-induced calcium mobilization is monitored using either FLUOROSKAN ASCENT (Labsystems; Franklin, Mass.) or FLIPR (fluorometric imaging plate reader system; Molecular Devices, Sunnyvale, Calif.) instruments. Data obtained between 30 and 60 seconds after agonist application are used to generate an 8-point concentration response curve, with final capsaicin concentrations of 1 nM to 3 μM. […] software (Synergy Software, Reading, Pa.) is used to fit the data to the equation: y=a*(1/(1+(b/x)^c)) to determine the 50% excitatory concentration (EC50) for the response. In this equation, y is the maximum fluorescence signal, x is the concentration of the agonist or antagonist (in this case, capsaicin), a is the Emax, b corresponds to the EC50 value and c is the Hill coefficient. Determination of Agonist Activity
Test compounds are dissolved in DMSO, diluted in 20 μl KRH buffer so that the final concentration of test compounds in the assay well is between 1 μM and 5 μM, and added to cells prepared as described above. The 96 well plates containing prepared cells and test compounds are incubated in the dark, at room temperature for 0.5 to 6 hours. It is important that the incubation not continue beyond 6 hours. Just prior to determining the fluorescence response, 100 μl capsaicin in KRH buffer at twice the EC50 concentration determined as described above is automatically added by the FLIPR instrument to each well of the 96 well plate for a final sample volume of 200 μl and a final capsaicin concentration equal to the EC50. The final concentration of test compounds in the assay wells is between 1 μM and 5 μM.
With `FC(F)(F)c1cccnc1N1CCN(c2cc(N3CCC4(CC3)OCCO4)nc(N3CCOCC3)n2)CC1` [8-(2-morpholin-4-yl-6-{4-[3-(trifluoromethyl)pyridin-2-yl]piperazin-1-yl}pyrimidin-4-yl)-1,4-dioxa-8-azaspiro[4.5]decane], the IC50 was not above 1000 nM. With `Cc1cc(CO)cnc1N1CCN(c2cc(N3CCCCC3)nc(N3CCCC3C)n2)[C@H](C)C1` (stereo partly shown) [(5-methyl-6-{3-methyl-4-[2-(2-methylpyrrolidin-1-yl)-6-piperidin-1-ylpyrimidin-4-yl]piperazin-1-yl}pyridin-3-yl)methanol], the IC50 is not above 1000 nM. On the same count and under the same terms, the same measure for `FC(F)(F)c1cccnc1N1CCN(c2cc(N3CCCCC3)nc(N3CCOCC3)n2)CC1` [4-(4-piperidin-1-yl-6-{4-[3-(trifluoromethyl)pyridin-2-yl]piperazin-1-yl}pyrimidin-2-yl)morpholine]: not above 1000 nM; for `Cc1cc(C(=O)O)cnc1N1CCN(c2cc(N3CCC(F)CC3)nc(N3CCCC3C)n2)[C@H](C)C1` (stereo partly shown) [6-{4-[6-(4-fluoropiperidin-1-yl)-2-(2-methylpyrrolidin-1-yl)pyrimidin-4-yl]-3-methylpiperazin-1-yl}-5-methylnicotinic acid]: not above 1000 nM.

Turning to `FC(F)(F)c1cccnc1N1CCN(c2cc(N3CCCC3)nc(N3CCOCC3)n2)CC1` [4-(4-pyrrolidin-1-yl-6-{4-[3-(trifluoromethyl)pyridin-2-yl]piperazin-1-yl}pyrimidin-2-yl)morpholine], the IC50 was not above 1000 nM.

As for `Fc1ccc2c(c1)CCN2c1cc(N2CCN(c3ncccc3C(F)(F)F)CC2)nc(N2CCOCC2)n1` [5-fluoro-1-(2-morpholin-4-yl-6-{4-[3-(trifluoromethyl)pyridin-2-yl]piperazin-1-yl}pyrimidin-4-yl)indoline], the IC50 is not above 1000 nM. Consider `Cc1cc(C(=O)O)cnc1N1CCN(c2cc(N3CCCCC3)nc(N3CCCC3C)n2)[C@H](C)C1` (stereo partly shown) [5-methyl-6-{3-methyl-4-[2-(2-methylpyrrolidin-1-yl)-6-piperidin-1-ylpyrimidin-4-yl]piperazin-1-yl}nicotinic acid], for which the IC50 was not above 1000 nM. On to `OCCC1CCN(c2cc(N3CCN(c4ncccc4C(F)(F)F)CC3)nc(N3CCOCC3)n2)CC1` [2-[1-(2-morpholin-4-yl-6-{4-[3-(trifluoromethyl)pyridin-2-yl]piperazin-1-yl}pyrimidin-4-yl)piperidin-4-yl]ethanol], for which the IC50 is not above 1000 nM.

Turning to `FC(F)(F)c1cccnc1N1CCN(c2cc(N3CCOCC3)nc(N3CCOCC3)n2)CC1` [4,4′-(6-{4-[3-(trifluoromethyl)pyridin-2-yl]piperazin-1-yl}pyrimidine-2,4-diyl)dimorpholine], the IC50 was not above 1000 nM. For `Cc1cc(C(N)=O)cnc1N1CCN(c2cc(N3CCCCC3)nc(N3CCCC3C)n2)[C@H](C)C1` (stereo partly shown) [5-methyl-6-{3-methyl-4-[2-(2-methylpyrrolidin-1-yl)-6-piperidin-1-ylpyrimidin-4-yl]piperazin-1-yl}nicotinamide], the IC50 is not above 1000 nM. For the molecule `CCOC(=O)c1cnc(N2CCN(c3cc(N4CCCCC4)nc(N4CCCC4C)n3)[C@H](C)C2)c(C)c1` (stereo partly shown) [ethyl 5-methyl-6-{3-methyl-4-[2-(2-methylpyrrolidin-1-yl)-6-piperidin-1-ylpyrimidin-4-yl]piperazin-1-yl}nicotinate], the IC50 is not above 1000 nM.

Another assay addresses T1, human capsaicin receptor. Description: Calcium mobilization assay, agonist response (capsaicin positive control). It counts as cell-based. The settings on record: capsaicin as positive control in cells expressing human capsaicin receptor; read-out: approximate EC90 concentration. Here is the method:
as §1, with “Plates are covered with aluminum foil and incubated at 37° C. for 1-2 hours in an environment containing 5% CO2. After the incubation, the dye is emptied from the plates, and the cells are washed once with KRH buffer, and resuspended in KRH buffer.” left out
To measure the ability of a test compound to agonize or antagonize a calcium mobilization response in cells expressing capsaicin receptors to capsaicin or other vanilloid agonist, the EC50 of the agonist capsaicin is first determined. […] Capsaicin-induced calcium mobilization is monitored using either FLUOROSKAN ASCENT (Labsystems; Franklin, Mass.) or FLIPR (fluorometric imaging plate reader system; Molecular Devices, Sunnyvale, Calif.) instruments. […] In this equation, y is the maximum fluorescence signal, x is the concentration of the agonist or antagonist (in this case, capsaicin), a is the Emax, b corresponds to the EC50 value and c is the Hill coefficient. […]
With `COc1cc(CNC(=O)CCCC/C=C/C(C)C)ccc1O` [capsaicin], the EC90 was approximately 100 nM.
